Data from patent US9057727B2, “Screening methods using G-protein coupled receptors and related compositions” (The General Hospital Corporation, priority 2007, dated 2015).
Read-outs that look alike come from different tables or passages of the source. Ends that are not written are not given here. Peptide text beside a SMILES is read from it.

Tests used:
[1] = system: SaOS cells; experiment: cAMP production in SaOS cells, dose-response; format: cell-based
[2] = target: T1, human PTHR, G protein-uncoupled conformation (R^0) (Homo sapiens, UniProt Q03431); experiment: Competition binding to R0 conformation of hPTHR (COS-7 membranes, GTPγS, 125I-PTH(1-34) tracer); details: for IC50: read-out: R^0 binding affinity hPTHR IC50; for screen human PIR R0 (% parent): parent PTHrP(1-28)NH
T1 construct: expressed in transfected cells; host or cells: COS-7, transient (Fugene-6)
T1 sequence (Q03431 27-593): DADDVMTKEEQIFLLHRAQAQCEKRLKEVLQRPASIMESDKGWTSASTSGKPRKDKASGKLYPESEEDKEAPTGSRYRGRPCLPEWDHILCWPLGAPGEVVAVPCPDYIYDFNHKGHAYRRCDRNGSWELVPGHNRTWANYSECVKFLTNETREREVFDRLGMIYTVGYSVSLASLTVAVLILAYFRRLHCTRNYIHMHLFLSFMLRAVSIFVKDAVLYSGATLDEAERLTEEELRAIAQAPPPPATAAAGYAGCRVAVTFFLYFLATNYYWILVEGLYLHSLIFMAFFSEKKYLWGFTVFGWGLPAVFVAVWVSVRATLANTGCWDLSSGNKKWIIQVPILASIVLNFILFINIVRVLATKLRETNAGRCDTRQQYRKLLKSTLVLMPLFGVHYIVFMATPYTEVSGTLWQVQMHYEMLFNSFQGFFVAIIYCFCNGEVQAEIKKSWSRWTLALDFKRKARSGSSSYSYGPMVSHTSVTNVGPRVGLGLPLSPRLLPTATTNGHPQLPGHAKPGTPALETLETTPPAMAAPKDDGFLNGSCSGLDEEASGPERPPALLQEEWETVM
Summary of the method: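 Bound versus free radioligand was separated by vacuum filtration after 90 min incubation of COS-7 hPTHR membranes (20-100 μg/mL) with tracer and competing peptides. Non-specific binding came from a saturating unlabeled analog.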

[3] = system: MC3T3-E1 cells; experiment: cAMP in MC3T3-E1 cells, dose-response; format: cell-based
Experimental: In the 1-30 scaffold, Gly, Ser, Leu, Asn, Gln, Trp, Glu, and Lys were substituted at position 29; Gly, Ser, Leu, Asn, Asp, Trp, and Lys were substituted at position 30; and Ser, Leu, Asn, Val, Trp, Glu, and Lys were substituted at position 31. […] These peptides were tested for cAMP activity in MC3T3-E1 cells.

[4] = system: LLCPK1-B64 cells or SaOS-2 cells; experiment: cAMP screen of substituted PTHrP(1-28) analogs (% parent); format: cell-based; details: parent PTHrP(1-28)NH
Summary of the method: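 LLCPK1-B64 or SaOS-2 cells exposed to peptide analogs at 3×10^−9M with IBMX for 30 minutes at room temperature, then cAMP measured. Each analog's response expressed as percentage of that for parent PTHrP(1-28).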

[5] = target: T2, human PTHR, G protein-coupled conformation (RG) (Homo sapiens, UniProt Q03431); experiment: Competition binding to RG conformation of hPTHR (COS-7 membranes, GαsND, 125I-[Aib1,3,M]PTH(1-15) tracer); details: for IC50: Table 2, read-out: RG binding affinity hPTHR IC50; for screen human PIR RG (% parent): parent PTHrP(1-28)NH
T2 construct: expressed in transfected cells; host or cells: COS-7, transient (Fugene-6); membranes
T2 sequence (Q03431 27-593): T1 sequence (Q03431 27-593)

[6] = Calcemic action in normal rats (blood ionized calcium); format: in vivo; details: for calcemic action compared with control peptides, in words: normal and TPTX rats
Experimental: Binding to the rat PTHR was also measured in vitro.
Concentration of peptides in stock solution were adjusted by dilution with 25 mmol/L phosphate-citrate buffer/100 mmol/L NaCl/0.05% Tween 80 (pH. 5.0) (PC-buffer). All peptides were allowed to stand on ice immediately before administration.
Female SD-IGS rat at 8 weeks of age (Charles River Japan, Inc.) were measured for their body weight. Blood was collected by tail vein into heparinized capillary tubes and measured for baseline levels of blood ionized calcium and pH using Ca^++/pH analyzer (Model 634/Bayer Medical Ltd.) to give the corrected level of ionized calcium at pH 7.4 for each sample. Rats received intravenous administration of each peptides at a dose of 1 ml/kg. Peptides were administered to groups of 6 rats each respectively. At 1, 2, 4, or 6 hours after administration, blood was collected by tail vein to monitor the time course of corrected blood ionized calcium levels. The time course of changes in corrected ionized calcium levels, compared to vehicle, and are expressed as means+/−standard error.

[7] = target: T3, human PTH receptor (Homo sapiens, UniProt Q03431); experiment: cAMP in HRKRK-B7 cells EC50 (nM)
T3 construct: expressed in transfected cells
Description: Table printed on a drawing sheet, Figure 25
Head of the field: cAMP in HRKRK-B7 cells EC50 (nM)
First copying reader's note: The column head prints the cell line as HRKRK-B7 while the title prints HKRK-B7.

[8] = Table 2, read-out: SaOS camp EC50
[9] = Table 3, read-out: dose-response cAMP in SaOS (EC50)
[10] = Table 2, read-out: MC3T3-E1 cAMP EC50
[11] = Table 3, read-out: dose-response cAMP in MC3T3-E1 (EC50)

| Compound | EC50 [1, 8] [nM] | EC50 [1, 9] [nM] | R0/RG selectivity ([2]; Table 2, hPTHR) | IC50 ([2]; Table 2) [nM] | screen human PIR R0 (% parent) [2] [% parent] | EC50 [3, 10] [nM] | EC50 [3, 11] [nM] | screen cAMP (% parent) [4] [% parent] | IC50 [5] [nM] | screen human PIR RG (% parent) [5] [% parent] | calcemic action compared with control peptides, in words [6] | EC50 [7] [nM] | calcemic action (blood ionized calcium), in words ([6]; normal rats, i.v.) |
| --- | --- | --- | --- | --- | --- | --- | --- | --- | --- | --- | --- | --- | --- |
| CC[C@H](C)[C@H](NC(=O)[C@H](CC(C)C)NC(=O)[C@H](CCCCN)NC(=O)[C@H](Cc1c[nH]cn1)NC(=O)[C@H](CC(C)C)NC(=O)[C@H](Cc1ccccc1)NC(=O)[C@H](C)NC(=O)[C@H](CCCNC(=N)N)NC(=O)[C@H](CCCNC(=N)N)NC(=O)[C@H](CCCNC(=N)N)NC(=O)[C@H](C)NC(=O)[C@H](CC(=O)O)NC(=O)[C@H](CCC(N)=O)NC(=O)[C@@H](NC(=O)[C@H](CO)NC(=O)[C@H](CCCCN)NC(=O)CNC(=O)[C@H](CCCCN)NC(=O)[C@H](CC(=O)O)NC(=O)[C@H](Cc1c[nH]cn1)NC(=O)[C@H](CC(C)C)NC(=O)[C@H](CC(C)C)NC(=O)[C@H](CCC(N)=O)NC(=O)[C@H](Cc1c[nH]cn1)NC(=O)[C@H](CCC(=O)O)NC(=O)[C@H](CO)NC(=O)[C@@H](NC(=O)[C@H](C)N)C(C)C)[C@@H](C)CC)C(N)=O [A18, 22, K26-PTHrP(1-28)NH, A18,22,K26-PTHrP(1-28)] (H-AVSEHQLLHDKGKSIQDARRRAFLHKLI-NH2; N-terminus assumed) | 0.024 | 0.024 | 18079 | 1810 | 178 | 0.091 | 0.091 | 405 | 0.1 | 193 | – | – | – |
| CC[C@H](C)[C@H](NC(=O)[C@H](CC(C)C)NC(=O)[C@H](CCCCN)NC(=O)[C@H](CC(C)C)NC(=O)[C@H](CC(C)C)NC(=O)[C@H](Cc1ccccc1)NC(=O)[C@H](C)NC(=O)[C@H](CCCNC(=N)N)NC(=O)[C@H](CCCNC(=N)N)NC(=O)[C@H](CCCNC(=N)N)NC(=O)[C@H](C)NC(=O)[C@H](CC(=O)O)NC(=O)[C@H](CCC(N)=O)NC(=O)[C@@H](NC(=O)[C@H](CO)NC(=O)[C@H](CCCCN)NC(=O)CNC(=O)[C@H](CCCCN)NC(=O)[C@H](CC(=O)O)NC(=O)[C@H](Cc1c[nH]cn1)NC(=O)[C@H](CC(C)C)NC(=O)[C@H](CC(C)C)NC(=O)[C@H](CCC(N)=O)NC(=O)[C@H](Cc1c[nH]cn1)NC(=O)[C@H](CCC(=O)O)NC(=O)[C@H](CO)NC(=O)[C@@H](NC(=O)[C@H](C)N)C(C)C)[C@@H](C)CC)C(=O)N[C@@H](C)C(=O)N[C@@H](CCC(=O)O)C(N)=O [A18, 22, L25, K26-PTHrP(1-30)NH, A18,22,L25,K26-PTHrP(1-30)] | 0.008 | – | – | 144 | – | 0.067 | 0.067 | – | 0.05 | – | – | – | – |
| CC[C@H](C)[C@H](NC(=O)[C@H](CC(C)C)NC(=O)[C@H](CCCCN)NC(=O)[C@H](Cc1c[nH]cn1)NC(=O)[C@H](CC(C)C)NC(=O)[C@H](Cc1ccccc1)NC(=O)[C@H](C)NC(=O)[C@H](CCCNC(=N)N)NC(=O)[C@H](CCCNC(=N)N)NC(=O)[C@H](CCCNC(=N)N)NC(=O)[C@H](CCC(=O)O)NC(=O)[C@H](CC(=O)O)NC(=O)[C@H](CCC(N)=O)NC(=O)[C@@H](NC(=O)[C@H](CO)NC(=O)[C@H](CCCCN)NC(=O)CNC(=O)[C@H](CCCCN)NC(=O)[C@H](CC(=O)O)NC(=O)[C@H](Cc1c[nH]cn1)NC(=O)[C@H](CC(C)C)NC(=O)[C@H](CC(C)C)NC(=O)[C@H](CCC(N)=O)NC(=O)[C@H](Cc1c[nH]cn1)NC(=O)[C@H](CCC(=O)O)NC(=O)[C@H](CO)NC(=O)[C@@H](NC(=O)[C@H](C)N)C(C)C)[C@@H](C)CC)C(N)=O [E18, A22, K26-PTHrP(1-28)NH, E18,A22,K26-PTHrP(1-28)] (H-AVSEHQLLHDKGKSIQDERRRAFLHKLI-NH2; N-terminus assumed) | 0.241 | 0.241 | – | 9240 | 68.8 | 0.251 | 0.251 | 301 | – | 145 | – | – | – |
| CC[C@H](C)[C@H](NC(=O)[C@H](CCC(=O)O)NC(=O)[C@H](C)NC(=O)[C@@H](NC(=O)[C@H](Cc1c[nH]cn1)NC(=O)[C@@H](NC(=O)[C@H](CCC(=O)O)NC(=O)[C@H](C)NC(=O)[C@@H](NC(=O)[C@H](CC(C)C)NC(=O)[C@H](Cc1c[nH]cn1)NC(=O)[C@H](Cc1c[nH]cn1)NC(=O)[C@H](CC(C)C)NC(=O)[C@H](Cc1ccccc1)NC(=O)[C@H](Cc1ccccc1)NC(=O)[C@H](CCCNC(=N)N)NC(=O)[C@H](CCCNC(=N)N)NC(=O)[C@H](CCCNC(=N)N)NC(=O)[C@H](CC(C)C)NC(=O)[C@H](CC(=O)O)NC(=O)[C@H](CCC(N)=O)NC(=O)[C@@H](NC(=O)[C@H](Cc1c[nH]cn1)NC(=O)[C@H](CCCCN)NC(=O)CNC(=O)[C@H](CC(C)C)NC(=O)[C@H](CC(N)=O)NC(=O)[C@H](Cc1c[nH]cn1)NC(=O)[C@H](CCSC)NC(=O)[C@H](CC(C)C)NC(=O)[C@H](CCC(N)=O)NC(=O)[C@@H](NC(=O)[C@H](CCC(=O)O)NC(=O)[C@H](CO)NC(=O)[C@@H](NC(=O)[C@@H](N)CO)C(C)C)[C@@H](C)CC)[C@@H](C)CC)[C@@H](C)CC)[C@@H](C)CC)[C@@H](C)O)C(=O)O [PTH(1-14)/PTHrP(15-36), hPTH(1-14)/PTHrP(15-36)] (H-SVSEIQLMHNLGKHIQDLRRRFFLHHLIAEIHTAEI-OH) | – | – | – | – | – | – | – | – | – | – | higher calcemic actions than did PTH(1-34) | 1.35 | – |
| CC[C@H](C)[C@H](NC(=O)[C@H](CCC(=O)O)NC(=O)[C@H](C)NC(=O)[C@@H](NC(=O)[C@H](Cc1c[nH]cn1)NC(=O)[C@@H](NC(=O)[C@H](CCC(=O)O)NC(=O)[C@H](C)NC(=O)[C@@H](NC(=O)[C@H](CC(C)C)NC(=O)[C@H](Cc1c[nH]cn1)NC(=O)[C@H](Cc1c[nH]cn1)NC(=O)[C@H](CC(C)C)NC(=O)[C@H](Cc1ccccc1)NC(=O)[C@H](Cc1ccccc1)NC(=O)[C@H](CCCNC(=N)N)NC(=O)[C@H](CCCNC(=N)N)NC(=O)[C@H](CCCNC(=N)N)NC(=O)[C@H](CCSC)NC(=O)[C@H](CO)NC(=O)[C@H](CC(N)=O)NC(=O)[C@H](CC(C)C)NC(=O)[C@H](Cc1c[nH]cn1)NC(=O)[C@H](CCCCN)NC(=O)CNC(=O)[C@H](CC(C)C)NC(=O)[C@H](CC(N)=O)NC(=O)[C@H](Cc1c[nH]cn1)NC(=O)[C@H](CCSC)NC(=O)[C@H](CC(C)C)NC(=O)[C@H](CCC(N)=O)NC(=O)[C@@H](NC(=O)[C@H](CCC(=O)O)NC(=O)[C@H](CO)NC(=O)[C@@H](NC(=O)[C@@H](N)CO)C(C)C)[C@@H](C)CC)[C@@H](C)CC)[C@@H](C)CC)[C@@H](C)O)C(=O)O [PTH(1-18)/PTHrP(19-36), hPTH(1-18)/PTHrP(19-36)] (H-SVSEIQLMHNLGKHLNSMRRRFFLHHLIAEIHTAEI-OH) | – | – | – | – | – | – | – | – | – | – | higher calcemic actions than did PTH(1-34) | 1.34 | – |
| AVAEIQLMHQRGKSIQDLRRRFFLHHLIAEIHTAEI (AVAEIQLMHQRGKSIQDLRRRFFLHHLIAEIHTAEI-OH) [Mc-PTH(1-11)/PTHrP(15-36)] | – | – | – | – | – | – | – | – | – | – | – | – | Prolonged calcemic effects |
